Source: US10925855B2, “Compositions comprising water dispersible nanoparticles of a retinoid compound” (GALDERMA RESEARCH & DEVELOPMENT, priority 2015, dated 2021)

Experiment: Chemical stability by HPLC
Assay type: physicochemical
Protocol: Chemical stability of nanosized compound A formulae were investigated by HPLC measurements. They were performed in an Agilent 1100 HPLC waters coupled with ZQ2000 MSD, C18, Phenomenex Gemini-NX 3 micron, 100×3 mm column.

CC(C)(C)c1cc(-c2cc(-c3ccc(C(=O)O)cc3)ccc2OCCO)ccc1N1CCCC1 [Compound A, 3″-tert-butyl-4′-(2-hydroxyethoxy)-4″-pyrrolidin-1-yl[1,1′;3′,1″]-terphenyl-4-carboxylic acid]
decomposition of the active ingredient in HPLC analysis (0.001 M sodium hydroxide solution as antisolvent): decomposition of the active could not be observed
decomposition of the active ingredient in HPLC analysis (0.01 M sodium hydroxide solution as antisolvent): decomposition of the active could not be observed
decomposition of the active ingredient in HPLC analysis (0.1 M sodium hydroxide used as antisolvent (data not shown)): Significant decomposition
